Data from ChEMBL document CHEMBL3603775, “Design, synthesis and evaluation of benzotriazole derivatives as novel antifungal agents” (Bioorg Med Chem Lett, 2015).

How the values were obtained:
[1] = target: T1, Lanosterol 14-alpha demethylase (Candida albicans (strain SC5314 / ATCC MYA-2876) (Yeast), UniProt P10613); experiment: Inhibition of Candida albicans lanosterol 14-alpha demethylase assessed as reduction of ergosterol biosynthesis at 10 ug/ml after 18 hrs by UV spectroscopy analysis
Candida albicans [2] = experiment: Antifungal activity against Candida albicans ATCC 10231 at 100 ug/ml after 48 hrs by cup plate method; format: functional; details: ATCC 10231, 48 h
[3] = target: T1, Lanosterol 14-alpha demethylase; experiment: Inhibition of Candida albicans lanosterol 14-alpha demethylase assessed as reduction of ergosterol biosynthesis at 100 ug/ml after 18 hrs by UV spectroscopy analysis
Candida albicans [4] = experiment: Antifungal activity against Candida albicans ATCC 10231 at 50 ug/ml after 48 hrs by cup plate method; format: functional; details: ATCC 10231, 48 h
[5] = target: T1, Lanosterol 14-alpha demethylase; experiment: Inhibition of Candida albicans lanosterol 14-alpha demethylase assessed as reduction of ergosterol biosynthesis at 50 ug/ml after 18 hrs by UV spectroscopy analysis
Candida albicans [6] = experiment: Antifungal activity against Candida albicans ATCC 10231 at 10 ug/ml after 48 hrs by cup plate method; format: functional; details: ATCC 10231, 48 h

T1 sequence (P10613 whole entry): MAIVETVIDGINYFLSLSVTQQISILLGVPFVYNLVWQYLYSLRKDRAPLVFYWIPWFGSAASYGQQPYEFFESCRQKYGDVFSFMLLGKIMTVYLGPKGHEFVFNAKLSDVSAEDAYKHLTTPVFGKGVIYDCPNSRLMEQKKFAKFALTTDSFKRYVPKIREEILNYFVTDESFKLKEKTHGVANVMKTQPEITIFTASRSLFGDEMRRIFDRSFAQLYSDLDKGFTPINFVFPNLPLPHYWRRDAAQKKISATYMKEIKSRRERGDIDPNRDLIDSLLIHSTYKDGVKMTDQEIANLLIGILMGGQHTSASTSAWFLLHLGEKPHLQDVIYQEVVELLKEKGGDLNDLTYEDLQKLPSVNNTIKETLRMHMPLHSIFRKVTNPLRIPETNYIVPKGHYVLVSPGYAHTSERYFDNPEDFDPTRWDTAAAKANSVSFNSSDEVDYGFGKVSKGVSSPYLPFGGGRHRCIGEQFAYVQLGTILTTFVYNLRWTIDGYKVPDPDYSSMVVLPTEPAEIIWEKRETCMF

Structure (SMILES) | inhibition at 10 µg/mL [1] | inhibition at 100 µg/mL (Candida albicans [2]) | inhibition at 100 µg/mL [3] | inhibition at 50 µg/mL (Candida albicans [4]) | inhibition at 50 µg/mL [5] | inhibition at 10 µg/mL (Candida albicans [6])
Cc1ccccc1NCc1ccc2[nH]nnc2c1 | 49.9% | 67.7% | 65.8% | 34.2% | 65.8% | 0%
c1ccc(CNCc2ccc3[nH]nnc3c2)cc1 | 46.5% | 67.7% | 66% | 27.4% | 48.5% | 12.5%
CCCCNCc1ccc2[nH]nnc2c1 | 1.55% | 64.3% | 47.8% | 30% | 45.5% | 12.5%
O=C(NCc1ccccc1)c1ccc2[nH]nnc2c1 | 15.9% | 54.1% | 41.3% | 28.5% | 33.1% | 4.16%
Cc1ccccc1NC(=O)c1ccc2[nH]nnc2c1 | 12.6% | 58.4% | 42.5% | 23.7% | 35.7% | 4.16%
CCCCNC(=O)c1ccc2[nH]nnc2c1 | 7.91% | 54.3% | 38.1% | 27.4% | 22.7% | 4.16%
Cc1ccccc1OCc1ccc2[nH]nnc2c1 | 50.5% | 66.1% | 54.4% | 36.4% | 54% | 0%
Cc1ccccc1NCn1nnc2ccccc21 | 11.6% | 50.2% | 31.3% | 4.16% | 29.4% | 0%
OC(Cn1cncn1)(Cn1cncn1)c1ccc(F)cc1F [FLUCONAZOLE] | 45.5% | 65.5% | 51.2% | 30% | 47.7% | 12.5%
